Results on four molecules are retold here after article PMC12568630, “SNAP-tag2 for faster and brighter protein labeling” (Nature Chemical Biology, 2025).

Molecules are shown by their SMILES.

This assay addresses T1, hAGT (Homo sapiens, UniProt P16455).
T1 construct: gene MGMT; parental hAGT
T1 sequence (P16455 1-207): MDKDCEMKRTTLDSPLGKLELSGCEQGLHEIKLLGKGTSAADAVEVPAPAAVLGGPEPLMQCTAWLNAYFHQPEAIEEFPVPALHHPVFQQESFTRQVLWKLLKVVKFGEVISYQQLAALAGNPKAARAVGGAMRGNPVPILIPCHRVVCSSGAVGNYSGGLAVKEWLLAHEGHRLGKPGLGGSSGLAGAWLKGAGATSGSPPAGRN
Put plainly: biochemical. On the set-up: fluorescence polarization labeling kinetics of purified tag proteins with TMR substrates, apparent second-order rate constant. The note with it: read-out: hAGT kapp x 10^3.
For the molecule `CN(C)c1ccc2c(-c3cc(C(=O)NCc4ccc(COc5cc(Cl)nc(N)n5)cc4F)ccc3C(=O)[O-])c3ccc(=[N+](C)C)cc-3oc2c1` [compound 22, CF–TMR], the kinact/KI was found to be 550 ± 50 M⁻¹ s⁻¹.
Regarding `CN(C)c1ccc2c(-c3cc(C(=O)NCc4ccc(COc5cc(Cl)nc(N)n5)cc4)ccc3C(=O)[O-])c3ccc(=[N+](C)C)cc-3oc2c1` [CP–TMR], the kinact/KI stood at 800 ± 40 M⁻¹ s⁻¹.
The value for `CN(C)c1ccc2c(-c3cc(C(=O)NCc4ccc(COc5cc(C(F)(F)F)nc(N)n5)cc4F)ccc3C(=O)[O-])c3ccc(=[N+](C)C)cc-3oc2c1` [compound 30, TF–TMR] was 520 ± 60 M⁻¹ s⁻¹.
As to `CN(C)c1ccc2c(-c3cc(C(=O)NCc4ccc(COc5cc(C(F)(F)F)nc(N)n5)cc4)ccc3C(=O)[O-])c3ccc(=[N+](C)C)cc-3oc2c1` [compound 4, CF3P–TMR], the kinact/KI is 640 ± 40 M⁻¹ s⁻¹.
